Experimental data reported in the METLIN SMRT retention time set (Domingo-Almenara et al. 2019).

Assay: gradient 5% acetonitrile 3 min, to 50% in 2 min, to 85% in 15 min, held 3 min, 100 µL/min
Settings: column: Zorbax Extend-C18 2.1 x 50 mm; eluents: water / acetonitrile, 0.1% formic acid
Outline: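 Pure standards were analyzed in mixtures of ~100 molecules using HPLC coupled to a quadrupole time-of-flight mass spectrometer, in both positive and negative ionization mode. Separation used a Zorbax Extend-C18 column (2.1 × 50 mm, 1.8 μm) at 100 μL/min, with water and acetonitrile each containing 0.1% formic acid. Dead and dwell volumes were 40 μL and 900 μL, and data were collected over 3 months. Retention time was read from computationally picked adduct peaks, each inspected manually.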

SMILES | RP-LC retention time
COc1ccc(NC(=O)Cn2c(C)cc(-c3nnc(C4CCC4)o3)c2C)cc1F | 697 s
COc1cccc(NC(=O)Cn2nc3cc(C)nc(-c4ccccc4)n3c2=O)c1 | 803 s
CC(C)c1nc(NC(=O)Cn2nc3c(cc2=O)CCCCC3)n[nH]1 | 632 s
O=C(NCCCN1CCc2ccccc2C1)c1noc2c1CCCC2 | 659 s
Cn1cc(CC(=O)NCc2nc(-c3ccccc3)no2)c2ccccc21 | 837 s
COc1cc(-c2noc(-c3nc(-c4ccccc4F)no3)n2)cc(OC)c1OC | 1140 s
CCCCC(=O)N1CCC2(C1)C(=O)N(C)c1ccccc12 (stereo not given) | 743 s
Cc1ccc(-c2noc(CSc3nc4cc5c(cc4c(=O)n3Cc3ccccc3)OCO5)n2)cc1 | 1300 s
Cc1noc(C)c1S(=O)(=O)NCC1CCN(S(=O)(=O)C2CC2)CC1 | 709 s
CC1=NS(=O)(=O)N(C)C=C1C(=O)OCc1cc(F)ccc1F | 935 s
O=C(Nc1cccc(Br)c1)c1cnc(-c2ccccc2)nc1-c1ccncc1 | 990 s
COc1ccc(-c2nc3cnccn3c2NCc2ccccc2)cc1 | 719 s
Cc1noc(COC2CCCN(C(=O)CCc3c(C)noc3C)C2)n1 (stereo not given) | 678 s
COc1ccccc1-c1nc(Cc2noc(-c3ccccc3F)n2)c(C)o1 | 1020 s
CC1(C)C(=O)N(CC(=O)Nc2cccc(F)c2)c2ccccc21 | 886 s
COC(=O)c1cccc(C(=O)N2CCN(c3cc(Cl)ccc3C)CC2)n1 | 946 s
CCN1CCC(N(Cc2ccc3c(c2)OCO3)C(=O)Nc2cc(Cl)ccc2C(=O)OC)CC1 | 774 s
COc1ccc(S(=O)(=O)N2CCC(n3cnnc3C(C)C)CC2)cc1 | 694 s
CCCn1c(=O)c(C)nc2cc(-c3noc(-c4cccs4)n3)ccc21 | 1120 s
Cc1ccc2oc(N3CCN(C(=O)c4cccc(-c5noc(C)n5)c4)CC3)nc2n1 | 623 s
CCOC(=O)C1CCCN(C(=O)c2ccc(-c3csc(CC)n3)cc2)C1 (stereo not given) | 925 s
CCCCN(C)C(=O)Cn1c(=O)c2cnc(-c3ccccc3)nc2n(C)c1=O | 1000 s
COc1cccc(C2Cn3nnc(-c4nc(-c5ccccc5Cl)no4)c3CO2)c1 (stereo not given) | 1150 s

SMILES | RP-LC retention time
Cc1[nH]c(C)c(S(=O)(=O)N2CCC(C(=O)Nc3ccc(Cl)cc3)CC2)c1C(=O)N1CCCC1 | 788 s
O=C(C1CCN(c2cncnc2N2CCCCC2)CC1)N1CCCC1 | 554 s
CC(C)CC(=O)Nc1ccc(N2CCCC(C)C2)cc1C(=O)O (stereo not given) | 671 s
CN(CC#N)C(=O)c1ccc(N2CCc3ccccc32)s1 | 913 s
O=C1CC(c2nc(-c3ccc(C(F)(F)F)cc3)no2)CN1c1ccc2c(c1)OCO2 (stereo not given) | 1070 s
Cc1cc(NC(=O)CSc2nnc(-c3c(C)nc4sccn34)n2C)no1 | 588 s
c1cc(-c2noc(-c3cccs3)n2)cc(-c2ccn[nH]2)c1 | 903 s
CCCc1cc(N2CCN(C(=O)c3ccc(N(C)C)cc3)CC2)nc2nncn12 | 612 s
Cc1ccc(-n2nc(C)c3sc(N4CCCC(C(=O)NC(C)CCc5ccccc5)C4)nc32)cc1 (stereo not given) | 1300 s
COc1ccc(Cc2nnc3sc(Cc4ccc(OC)c(OC)c4)nn23)cc1 | 815 s
O=C(O)CCC1CCN(C(=O)c2ccccc2Cl)CC1 | 677 s
CC(C)N1CCN(c2ncc(C(=O)Nc3ccccc3)c(N)n2)CC1 | 591 s
Cc1ccc(-c2ccc(N3CCN(c4ccccn4)CC3)nn2)cc1S(=O)(=O)N1CCOCC1 | 623 s
O=S(=O)(NCc1ccccc1Cl)c1c[nH]c2ncccc12 | 742 s
COCCCNC(=O)C1c2ccccc2C(=O)N1CCCc1ccccc1 (stereo not given) | 761 s
CC(C)(C)NC(=O)N1CCCC1c1noc(COc2ccc(F)cc2)n1 (stereo not given) | 894 s
COC(=O)c1cc(OCC(=O)Nc2ccc(Cl)cc2)c2cc(OC)ccc2n1 | 899 s
O=C(NCCc1n[nH]c(Cc2cccc(F)c2)n1)c1ccc2c(c1)OCO2 | 673 s
O=C(C1CCCO1)N1CCN(c2nc3cccnc3n(Cc3ccccc3)c2=O)CC1 (stereo not given) | 856 s
CCc1ccc(Oc2cc(N3CCC(C(=O)NCc4ccc(OC)cc4)CC3)ncn2)cc1 | 988 s
CCC1CCCCN1C(=O)c1cnc2nc(C)ccc2c1Nc1ccc(C)c(C)c1 (stereo not given) | 702 s
NC(=O)CCC(NC(=O)Cc1ccccc1)C(=O)O (stereo not given) | 594 s
COc1ccc(C(=O)NC2CCN(c3ccc(N4CCSCC4)nn3)CC2)c(OC)c1 | 644 s

SMILES | RP-LC retention time
Cc1cccc(-c2nc(N3CCCC3)ncc2C(=O)O)c1 | 819 s
CN(C)c1ccc(C(=O)NC2CCN(c3cc(-c4ccc(F)cc4)[nH]n3)C2)cc1 (stereo not given) | 733 s
Cc1cnc(C2CN(Cc3ccccn3)C2)n1CC1CC1 | 538 s
COc1cccc(CNC(=O)Nc2cc3c(cc2N2CCCC2)n(C)c(=O)n3C)c1 | 600 s
O=C(NC1CCCC1)N1c2ccccc2CC1c1noc(C2CCOCC2)n1 (stereo not given) | 854 s
CCc1ccccc1N1C(=O)CN(S(C)(=O)=O)CC1(C)C(=O)NCc1ccc(F)cc1 (stereo not given) | 830 s
COc1ccc(-c2nnc(COc3ccc(NC(=O)c4cncc(Br)c4)cc3)o2)cc1 | 893 s
Cc1ncc(-c2ccnc(Nc3ccc(S(C)(=O)=O)cc3)n2)n1C(C)C | 636 s
COc1ccccc1N1CCN(c2cc(SCC(=O)Nc3ccccc3F)ncn2)CC1 | 1100 s
COc1ccc(CC(=O)N2C[C@@H]3C[C@H](NC(=O)c4ccccc4)[C@H]2C3)cc1Cl | 794 s
CCc1cc(C2CCCN2C(=O)NCCc2ccccc2)on1 (stereo not given) | 789 s
CC(=O)Nc1ccc2c(c1)nc(CN1CCN(C(=O)c3ccco3)CC1)n2C | 576 s
CCOC(=O)c1c(N)ssc1=S | 786 s
CCc1noc2ncnc(NCCN(C)Cc3ccccc3)c12 | 595 s
CCN1CCN(c2ccc3nnc(CCc4nc(-c5ccc(F)cc5)no4)n3n2)CC1 | 602 s
CCn1c(C(=O)NCc2ccccc2OC)cc2sccc21 | 1010 s
COC(=O)c1sccc1S(=O)(=O)N1CCN(c2ccccn2)CC1 | 624 s
CCOc1ccc(C(C)NC(=O)c2c(C)sc3ccn(CC)c(=O)c23)cc1 (stereo not given) | 872 s
CCc1ccccc1NC(=O)N1CCC(n2cnc3ccc(C)cc3c2=O)CC1 | 799 s
Cn1cc(C2=CCN(C(=O)c3cc(F)cc(F)c3)CC2)c2cccnc21 | 846 s
Cc1ccc(Nc2nc(C)cc(N3CCN(S(=O)(=O)c4ccc5c(c4)OCCO5)CC3)n2)cc1 | 760 s
Cc1ccc(NC(=O)C2CCCN(c3cc(=O)n(C)c(=O)n3C)C2)cc1 (stereo not given) | 725 s
O=C(NCCCN1CCCCC1)C1CCN(c2nc3cccnc3s2)CC1 | 577 s

SMILES | RP-LC retention time
COc1ccc(OCC(=O)N2CCc3cc(-c4csc(C)n4)ccc32)cc1 | 958 s
O=C(NC1CCN(c2ccccc2)C1=O)c1ccc(Br)o1 (stereo not given) | 773 s
Cc1ccc(-c2csc(NC(=O)c3cccs3)n2)cc1C | 1180 s
Cc1cc(-c2nnc(NC(=O)C3CCCN(S(=O)(=O)c4cccs4)C3)o2)nn1C (stereo not given) | 696 s
CN(CCc1noc(-c2ccc(C(=O)N3CCN(c4ccccn4)CC3)cc2)n1)C(=O)c1ccccc1 | 625 s
O=C(NC1CCCCC1)C1CCCN(S(=O)(=O)Cc2ccccc2Cl)C1 (stereo not given) | 967 s
Cc1ccc(NS(=O)(=O)c2cc3c(s2)CCN(C(=O)C2CC2)C3)cc1C | 861 s
CCC(C)NC(=O)N1CCCN(C2=NS(=O)(=O)C(c3ccc(F)cc3)=C2C)CC1 (stereo not given) | 787 s
Fc1ccc(F)c(Cn2cccc2-c2nc(-c3ccncc3)no2)c1 | 1130 s
Cn1cc(CN2CCC(C(=O)NC3CCCCCC3)CC2)c2cc(Cl)ccc21 | 751 s
COc1ccc(CCNC(=O)C2CCN(S(C)(=O)=O)c3cc(C)ccc3O2)cc1 (stereo not given) | 893 s
CCN1CCN(c2ncc(C(=O)OC)c3ccccc23)CC1 | 604 s
CCOCCCNC(=O)c1nnc(-c2ccc(S(=O)(=O)N3CCCCC3)cc2)o1 | 762 s
COc1cc(OC)cc(C(=O)N2CCCC2COc2ccc(C(=O)N3CCCC3)cc2)c1 (stereo not given) | 807 s
Cc1ccccc1NS(=O)(=O)c1cc2n(c1)CCN(C(C)C)C2=O | 758 s
CN(C)CCNC(=O)C1CCc2sc(C(=O)N3CCOCC3)cc2C1 (stereo not given) | 551 s
COc1ccc(-c2cn3c(CC(=O)Nc4ccc5c(c4)OCCO5)csc3n2)cc1OC | 684 s
Cc1ccc(NC(=O)Cn2c(C)nc3onc(C)c3c2=O)cc1C | 756 s
COc1ccc(NC(=O)N2CCC(CC(=O)N3CCCCC3)CC2)cc1Cl | 774 s
O=C(Nc1ccccc1Cl)N1CCN(c2cc(-c3ccncc3)[nH]n2)CC1 | 600 s
Cc1noc(CNC(=O)C2CCN(C(=O)c3csc(-c4ccccc4)n3)CC2)n1 | 650 s
